# Assay results published in ChEMBL document CHEMBL3580632, “Lumiquinone A, an α-Aminomalonate-Derived Aminobenzoquinone from Photorhabdus luminescens” (2015).
# The source made the active and inactive calls. The rule behind the calls is not given here.
# Experiments:
# Saccharomyces cerevisiae = test: Antimicrobial activity against Saccharomyces cerevisiae assessed as inhibition of microbial growth at 50 ug/disk incubated at 30 degC for 24 hrs by paper disk method; type: functional
# Escherichia coli = test: Antimicrobial activity against Escherichia coli Nissle1917 assessed as inhibition of microbial growth incubated at 30 degC for 24 hrs by paper disk method; type: functional, organism-based
# Bacillus subtilis = test: Antimicrobial activity against Bacillus subtilis NCIB3610 assessed as inhibition of microbial growth at 50 ug/disk incubated at 30 degC for 24 hrs by paper disk method; type: functional; conditions: NCIB3610, 24 h, read-out: IZ
Structure (SMILES),growth inhibition (GI) (Saccharomyces cerevisiae),growth inhibition (GI) (Escherichia coli),zone of inhibition at 50 µg/disc (Bacillus subtilis) [mm]
CC(C)c1c(O)cc(/C=C/c2ccccc2)cc1O,Active,inactive,
CC(C)C1=C(O)C(=O)C(/C=C/c2ccccc2)=C(N)C1=O,,inactive,4
